These results are taken from publication PMC8537180, “Discovery of a Kojibiose Hydrolase by Analysis of Specificity-Determining Correlated Positions in Glycoside Hydrolase Family 65” (Molecules, 2021).

SMILES strings stand for the structures. Read-outs that look alike come from different tables or passages of the source.

The target of one experiment is T1, CaGP (Caldithrix abyssi, UniProt H1XSN4).
T1 construct: gene Calab_2975; codon-optimized gene in pET21a, C-terminal His6-tag, expressed in E. coli BL21(DE3) agp-, Ni-NTA purified; GH65 subgroup 22
T1 sequence (H1XSN4 entry or part of it): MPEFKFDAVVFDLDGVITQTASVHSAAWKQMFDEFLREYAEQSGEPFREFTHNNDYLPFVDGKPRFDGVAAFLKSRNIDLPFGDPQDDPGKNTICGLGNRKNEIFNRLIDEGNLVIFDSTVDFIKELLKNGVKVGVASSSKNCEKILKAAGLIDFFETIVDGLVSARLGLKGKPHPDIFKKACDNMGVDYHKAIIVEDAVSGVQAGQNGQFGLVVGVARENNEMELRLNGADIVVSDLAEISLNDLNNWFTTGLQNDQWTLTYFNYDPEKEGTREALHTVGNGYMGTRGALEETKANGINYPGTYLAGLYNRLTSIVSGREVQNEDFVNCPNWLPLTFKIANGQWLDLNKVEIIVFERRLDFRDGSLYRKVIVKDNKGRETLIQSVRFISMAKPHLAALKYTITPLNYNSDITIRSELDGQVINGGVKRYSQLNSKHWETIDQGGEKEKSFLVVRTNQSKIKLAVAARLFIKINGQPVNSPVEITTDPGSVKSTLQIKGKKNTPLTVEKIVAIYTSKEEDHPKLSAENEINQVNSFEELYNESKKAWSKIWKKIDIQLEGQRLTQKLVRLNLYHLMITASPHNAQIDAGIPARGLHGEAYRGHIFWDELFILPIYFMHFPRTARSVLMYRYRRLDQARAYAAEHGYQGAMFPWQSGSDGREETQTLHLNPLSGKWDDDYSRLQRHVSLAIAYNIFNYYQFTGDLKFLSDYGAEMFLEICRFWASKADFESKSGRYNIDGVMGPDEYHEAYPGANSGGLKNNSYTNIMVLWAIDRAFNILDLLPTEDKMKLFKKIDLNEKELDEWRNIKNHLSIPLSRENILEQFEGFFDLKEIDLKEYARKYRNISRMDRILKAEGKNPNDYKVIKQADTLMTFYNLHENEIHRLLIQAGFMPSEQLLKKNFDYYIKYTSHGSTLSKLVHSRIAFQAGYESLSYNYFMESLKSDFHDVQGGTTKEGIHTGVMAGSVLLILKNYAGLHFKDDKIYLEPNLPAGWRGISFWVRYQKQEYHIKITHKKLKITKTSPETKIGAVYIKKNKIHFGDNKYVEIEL
Nature of the experiment: phosphomolybdate assay and HPAEC-PAD, synthesis direction. Type of experiment: biochemical. The settings on record: 50 mM MOPS pH 7.0.

The target of another experiment is T2, HoGP (Halothermothrix orenii, UniProt B8D049).
T2 construct: gene Hore_00420
T2 sequence (B8D049 whole entry): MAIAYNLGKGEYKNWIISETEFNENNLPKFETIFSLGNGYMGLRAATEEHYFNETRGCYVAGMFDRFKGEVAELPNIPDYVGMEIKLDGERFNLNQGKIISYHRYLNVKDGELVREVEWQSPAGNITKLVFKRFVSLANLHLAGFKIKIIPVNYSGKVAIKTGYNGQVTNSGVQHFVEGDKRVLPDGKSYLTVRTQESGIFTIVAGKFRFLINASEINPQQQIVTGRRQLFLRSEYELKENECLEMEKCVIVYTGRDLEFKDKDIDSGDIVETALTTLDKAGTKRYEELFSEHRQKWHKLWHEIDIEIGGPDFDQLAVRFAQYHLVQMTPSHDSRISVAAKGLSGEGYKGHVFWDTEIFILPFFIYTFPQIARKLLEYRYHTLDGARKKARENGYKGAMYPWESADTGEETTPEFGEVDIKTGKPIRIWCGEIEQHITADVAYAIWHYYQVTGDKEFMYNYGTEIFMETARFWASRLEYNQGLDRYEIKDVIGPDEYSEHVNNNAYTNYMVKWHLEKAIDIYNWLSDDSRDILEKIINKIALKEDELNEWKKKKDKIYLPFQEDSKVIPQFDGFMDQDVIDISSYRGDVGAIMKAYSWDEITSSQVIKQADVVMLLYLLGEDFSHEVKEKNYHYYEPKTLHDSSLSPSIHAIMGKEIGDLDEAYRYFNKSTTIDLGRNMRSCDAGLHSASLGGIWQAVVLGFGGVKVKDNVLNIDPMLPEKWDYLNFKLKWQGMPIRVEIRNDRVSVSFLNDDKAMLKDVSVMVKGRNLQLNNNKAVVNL
Particulars: 50 mM MOPS pH 7.0.

In a further experiment the target is T3, ChGP (Caldicellulosiruptor hydrothermalis, UniProt E4Q9G1).
T3 construct: gene Calhy_0070; codon-optimized gene in pET21a, C-terminal His6-tag, expressed in E. coli BL21(DE3) agp-, Ni-NTA purified; GH65 subgroup 4
T3 sequence (E4Q9G1 entry or part of it): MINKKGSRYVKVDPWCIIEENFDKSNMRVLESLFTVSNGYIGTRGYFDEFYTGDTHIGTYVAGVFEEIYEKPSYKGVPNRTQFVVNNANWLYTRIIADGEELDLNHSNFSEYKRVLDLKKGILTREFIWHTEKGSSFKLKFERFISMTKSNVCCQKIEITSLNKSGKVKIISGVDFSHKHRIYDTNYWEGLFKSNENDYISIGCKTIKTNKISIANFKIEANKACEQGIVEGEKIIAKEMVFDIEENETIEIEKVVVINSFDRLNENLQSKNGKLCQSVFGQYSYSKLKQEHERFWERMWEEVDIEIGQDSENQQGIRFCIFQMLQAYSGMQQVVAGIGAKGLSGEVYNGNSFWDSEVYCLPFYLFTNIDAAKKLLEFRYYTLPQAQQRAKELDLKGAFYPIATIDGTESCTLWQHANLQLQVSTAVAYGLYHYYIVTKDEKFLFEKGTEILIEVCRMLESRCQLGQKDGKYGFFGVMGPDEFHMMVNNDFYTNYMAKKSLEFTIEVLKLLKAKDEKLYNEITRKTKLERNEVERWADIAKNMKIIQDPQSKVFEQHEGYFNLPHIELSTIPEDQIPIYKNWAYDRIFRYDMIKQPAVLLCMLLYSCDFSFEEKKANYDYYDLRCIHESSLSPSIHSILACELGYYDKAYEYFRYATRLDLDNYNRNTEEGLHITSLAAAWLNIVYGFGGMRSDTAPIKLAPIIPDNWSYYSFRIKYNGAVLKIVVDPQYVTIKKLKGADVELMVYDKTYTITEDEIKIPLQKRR
Nature of the experiment: phosphomolybdate assay and HPAEC-PAD, synthesis direction. Type of experiment: biochemical. The settings on record: acceptor; donor βGlc1P; 50 mM MOPS pH 7.0.

The target of the next experiment is T4, TbGP (Thermobispora bispora, UniProt D6Y6U5).
T4 construct: gene Tbis_2887; codon-optimized gene in pET21a, C-terminal His6-tag, expressed in E. coli BL21(DE3) agp-, Ni-NTA purified; GH65 subgroup 1
T4 sequence (D6Y6U5 entry or part of it): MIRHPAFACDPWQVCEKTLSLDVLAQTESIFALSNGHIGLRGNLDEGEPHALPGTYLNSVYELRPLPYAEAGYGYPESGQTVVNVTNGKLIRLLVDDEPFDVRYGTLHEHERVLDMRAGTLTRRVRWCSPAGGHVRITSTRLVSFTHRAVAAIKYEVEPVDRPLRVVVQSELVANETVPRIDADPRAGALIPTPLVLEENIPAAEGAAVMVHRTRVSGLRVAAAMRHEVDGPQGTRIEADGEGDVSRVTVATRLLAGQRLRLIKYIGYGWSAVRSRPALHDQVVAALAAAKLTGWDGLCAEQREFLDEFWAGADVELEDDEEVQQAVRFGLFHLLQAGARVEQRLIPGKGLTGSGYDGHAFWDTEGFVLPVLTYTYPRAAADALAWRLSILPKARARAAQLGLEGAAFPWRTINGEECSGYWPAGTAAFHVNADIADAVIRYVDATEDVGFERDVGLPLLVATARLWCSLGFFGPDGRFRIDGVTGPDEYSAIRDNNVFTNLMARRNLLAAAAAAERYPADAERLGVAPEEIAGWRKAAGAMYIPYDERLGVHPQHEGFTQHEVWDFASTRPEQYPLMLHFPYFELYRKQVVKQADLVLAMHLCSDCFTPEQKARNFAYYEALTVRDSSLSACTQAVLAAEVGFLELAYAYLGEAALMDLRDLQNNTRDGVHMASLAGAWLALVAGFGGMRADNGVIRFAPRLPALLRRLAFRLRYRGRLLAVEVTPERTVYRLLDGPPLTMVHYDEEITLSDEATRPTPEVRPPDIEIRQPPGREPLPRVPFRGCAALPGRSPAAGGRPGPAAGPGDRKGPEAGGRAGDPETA
Described as above. Type of experiment: biochemical. Particulars: 50 mM MOPS pH 7.0, trehalose formed.

For a further experiment, the target named is T5, MiGP (Mageeibacillus indolicus, UniProt D3R1R5).
T5 construct: gene HMPREF0868_0806; codon-optimized gene in pET21a, C-terminal His6-tag, expressed in E. coli BL21(DE3) agp-, Ni-NTA purified; GH65 subgroup 6
T5 sequence (D3R1R5 1-712): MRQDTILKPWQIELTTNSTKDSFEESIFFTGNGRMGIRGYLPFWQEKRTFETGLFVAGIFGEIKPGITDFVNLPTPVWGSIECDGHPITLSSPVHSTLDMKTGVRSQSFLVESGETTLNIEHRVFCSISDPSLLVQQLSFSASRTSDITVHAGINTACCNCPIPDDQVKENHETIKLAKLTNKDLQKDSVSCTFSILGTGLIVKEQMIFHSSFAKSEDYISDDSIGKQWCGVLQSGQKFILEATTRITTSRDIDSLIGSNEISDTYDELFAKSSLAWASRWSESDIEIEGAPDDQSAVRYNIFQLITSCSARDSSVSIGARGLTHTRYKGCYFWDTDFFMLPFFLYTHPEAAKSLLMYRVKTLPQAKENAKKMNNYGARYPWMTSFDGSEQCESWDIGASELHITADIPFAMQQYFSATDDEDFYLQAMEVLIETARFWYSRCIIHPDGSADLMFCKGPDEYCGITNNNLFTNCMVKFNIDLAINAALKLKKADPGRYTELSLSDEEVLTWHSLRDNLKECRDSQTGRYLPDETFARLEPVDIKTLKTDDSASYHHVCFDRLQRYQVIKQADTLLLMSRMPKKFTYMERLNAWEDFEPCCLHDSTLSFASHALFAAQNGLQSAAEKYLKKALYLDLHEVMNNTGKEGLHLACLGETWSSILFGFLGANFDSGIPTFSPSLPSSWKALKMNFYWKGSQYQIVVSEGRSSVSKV
The description is as above. The settings on record: acceptor, minor activity; donor 10 mM βGlc1P; 50 mM MOPS pH 7.0. The experiment is classed as biochemical.

For `O=P(O)(O)OC[C@H]1OC(O)[C@H](O)[C@@H](O)[C@@H]1O` (some centres unmarked) [glucose 6-phosphate], the “phosphomolybdate assay and HPAEC-PAD, synthesis direction” value (“phosphomolybdate assay and HPAEC-PAD” for short) at CaGP (donor βGlc1P) was “trehalose 6-phosphate was produced from βGlc1P and glucose 6-phosphate”. For `OC[C@H]1O[C@H](O[C@H]2C(O)O[C@H](CO)[C@@H](O)[C@@H]2O)[C@H](O)[C@@H](O)[C@@H]1O` (some centres unmarked) [kojibiose], the “phosphomolybdate assay and HPAEC-PAD” value on HoGP (phosphorolysis and acceptor with βGlc1P) was “both breaking kojibiose down to glucose and βGlc1P and using it as acceptor”.

Turning to `OC[C@H]1O[C@H](O[C@H]2[C@H](O)[C@@H](CO)OC(O)[C@@H]2O)[C@H](O)[C@@H](O)[C@@H]1O` (some centres unmarked) [nigerose], at ChGP, the “phosphomolybdate assay and HPAEC-PAD” value was “ChGP elongated nigerose, and other disaccharides, to form α-1,3-oligoglucans”. In the case of `O=P(O)(O)O[C@@H]1O[C@H](CO)[C@@H](O)[C@H](O)[C@H]1O` [βGlc1P], the “phosphomolybdate assay and HPAEC-PAD” value at CaGP (acceptor glucose 6-phosphate) is “trehalose 6-phosphate was produced from βGlc1P and glucose 6-phosphate”; on HoGP (acceptor kojibiose), “In a reaction mixture that contained both kojibiose and βGlc1P, phosphorolytic and synthetic reactions co-occur”; at TbGP (acceptor glucose) it was “In a reaction mixture of glucose and βGlc1P, TbGP produced trehalose”. Turning to `OC[C@H]1OC(O)[C@H](O)[C@@H](O)[C@@H]1O` (some centres unmarked) [glucose], the “phosphomolybdate assay and HPAEC-PAD” value was “In a reaction mixture of glucose and βGlc1P, TbGP produced trehalose” at TbGP (donor βGlc1P); “Apart from minor activity on glucose and galactose, MiGP prefers α-glucosidic disaccharides” on MiGP.
